Assay results published in EP0150787A2, “Compound having antibronchopneumopathic activity, process for its preparation and pharmaceutical compositions containing it” (PULITZER ITALIANA S.p.A., priority 1984, dated 1985).
Like-named read-outs stand apart in the source and are kept apart here.

What was measured:
[1] = test system: alveolar surfactant; assay: Activity on the alveolar surfactant (static volume-pulmonary pressure curves); assay type: in vivo; details: rat, 50 mg/kg p.o.
Experimental: This test allow to verify if a compound can modi fy the surfaces of lung alveoli, as there are pathological conditions in which a superficial firm is produced in the alveoli which, as time goes on, can produce foam in the bronchi, making the respiration difficult. In order to assess this kind of activity, the method described by Curty P.C. (Arzneim. Forsch. Drug. Res., 24, 847, 1974) is used. According to said method the volume and the pressure after insufflation in the rat's lung, are measured. […] After sacrifice, and after the trachea incan nulation, the respiratory apparatus has been extracted from the thoracic cavity and the static cur ves of volume-pulmonary pressure.

[2] = test system: rat; assay: Bronchosecretogogue activity (Mawatari test, bronchial elimination of sodium fluorescein); assay type: in vivo; details: 50 mg/kg i.p. (table head; text: oral route), percent increase of bronchial elimination
Description: The bronchosecretogogue activity of PU 163 and, as a comparison, of Ambroxol has been determined in the rat using the method described by Mawatari ("Experimental Studies on the Expectorant Action of Several Drugs", Kagoshima Daigaku Igaku Zasshi, 27, 561, 1976). […] After the animals'sacrifice, the evaluation of the amound of sodium fluorescein present at the bronchial level has been carried out. The results obtained, reported in the Table 3, are expressed as percent increase of the bronchial elimination of sodium fluorescein of the groups treated with Ambroxol and PU 163 in comparison with a control group.

[3] = test system: trachea ciliate cells; assay: Ciliary motility in the dog's trachea in vitro (transit speed of a charcoal bolus); assay type: cell-based; details: for SPEED OF CHARCOAL PARTICLES 5 Minutes mm/min. x̄ ± ES / SPEED OF CHARCOAL PARTICLES 10 Minutes mm/min x̄ ± ES / SPEED OF CHARCOAL PARTICLES 20 Minutes mm/min. x̄ ± ES / activation at 100 µg/mL: 10^-4 g/ml; for activation at 100 µg/mL: Canis lupus familiaris; for SPEED OF CHARCOAL PARTICLES Basal mm/min. x̄ ± ES: group later treated with 10^-4 g/ml
Description: The mucolytic activity of many products is due in that they induce an increase of motility in the trachea ciliate cells.
The method hereinafter described allows to assess "in vitro" if a compound increases, or not, the motility of said cells. The method is based on the measurement of the transit speed of a charcoal bolus in a section of trachea.
The method used is that described by J.E. Lightowler and N.H. Lightowler (Arch. Int. Pharmacodyn. 189, 53-58, 1971) and uses an apparatus similar to that described by T. Dalhamn (Acta Physiol. Scand. Suppl. 123, 1956).

[4] = test system: elastase; assay: Elastase inhibition (method of R.M. Senior); assay type: biochemical
Description: The inhibiting activity of PU 163 and of Ambroxol on elastase has been measured according to the method described by R.M. Senior (Plenum Press. New York; 249-254; 1977).

[5] = test system: chronic bronchitis induced by inhalation of SO in the rat; assay: Chronic bronchitis induced by SO2 inhalation; assay type: in vivo; details: 50 mg/kg by gastric tube
Description: The action of PU 163 in comparison with Ambroxol on the chronic bronchitis induced by inhalation of SO in the rat has been evaluated according to the method described by Quevauvillier e coll. (Therapie, XXII; 185-193; 1967). […] The efficacy of […] been evaluated in function of the regression degree of the pulmonary lesions induced by […] inhalation.

[6] = Acute toxicity, oral route, method of Litchfield and Wilcoxon; details: in vivo, os
Description: The acute toxicity of PU 163 has been determined in the mouse and in the rat by the oral route accor ding to the method of Litchfield and Wilcoxon (J. Pharm. Exp. Therap. 1949, 96, 99).

[7] = Pharmacokinetics and organ distribution by HPLC; assay type: in vivo; details: rat, oral route, equimolar dose corresponding to 50 mg/kg of Ambroxol base
Experimental: The pharmacokynetics behaviour and the distribu tion in the organs of PU 163, in comparison to Ambroxol, has been determined in the rat after ad ministration by the oral route of equimolar doses, corresponding to 50 mg/kg of Ambroxol base.

[8] = test system: pulmonary emphysema induced in the guinea pig; assay: Pulmonary emphysema induced by intratracheal porcine pancreatic elastase; assay type: in vivo; details: 50 mg/kg i.p. 1 hour after the elastase injection
Experimental: The ability of PU 163 of antagonizing the pulmonary emphysema induced in the guinea pig by intratracheal injection of 0.1 mg of porcine pancrea tic elastase has been evaluated in comparison with Ambroxol, according to the method described by Stone P.J. et al. (Am. Rev. Resp. Dis. 124/1, 56-59; 1981). Both compounds have been administered by the i.p. route at the equiponderant dose of 50 mg/kg 1 hour after the elastase injection.

[9] = 5 min, 5 minutes, read-out: SPEED OF CHARCOAL PARTICLES 5 Minutes % Δ vs.Bas. x̄ ± ES
[10] = 10 min, 10 minutes, * p <0.05, read-out: SPEED OF CHARCOAL PARTICLES 10 Minutes % Δ vs.Bas. x̄ ± ES
[11] = 20 min, 20 minutes, ** p <0.01, read-out: SPEED OF CHARCOAL PARTICLES 20 Minutes % Δ vs.Bas. x̄ ± ES

## Nc1c(Br)cc(Br)cc1CN[C@H]1CC[C@H](O)CC1 [Ambroxol, 4-/ /(2-amino-3,5-dibromophenyl)-methyl/amino/cyclohexanol, reference compound]
[1]; de-insufflation, 0.5 cm^3
  Internal pulmonary pressure (cm. H2O): 0.25 cm. H2O
[1]; de-insufflation, 1 cm^3
  Internal pulmonary pressure (cm. H2O): 1.1 cm. H2O
[1]; de-insufflation, 1.5 cm^3
  Internal pulmonary pressure (cm. H2O): 2.3 cm. H2O
[1]; de-insufflation, 2 cm^3
  Internal pulmonary pressure (cm. H2O): 3.3 cm. H2O
[1]; de-insufflation, 2.5 cm^3
  Internal pulmonary pressure (cm. H2O): 4.6 cm. H2O
[1]; de-insufflation, 3 cm^3
  Internal pulmonary pressure (cm. H2O): 6.1 cm. H2O
[1]; insufflation, 0.5 cm^3
  Internal pulmonary pressure (cm. H2O): 2.45 cm. H2O
[1]; insufflation, 1 cm^3
  Internal pulmonary pressure (cm. H2O): 4.1 cm. H2O
[1]; insufflation, 1.5 cm^3
  Internal pulmonary pressure (cm. H2O): 5.6 cm. H2O
[1]; insufflation, 2 cm^3
  Internal pulmonary pressure (cm. H2O): 6.9 cm. H2O
[1]; insufflation, 2.5 cm^3
  Internal pulmonary pressure (cm. H2O): 7.9 cm. H2O
[1]; insufflation, 3 cm^3
  Internal pulmonary pressure (cm. H2O): 8.7 cm. H2O
[1]; insufflation, 3.5 cm^3
  Internal pulmonary pressure (cm. H2O): 9.3 cm. H2O
[2]
  SODIUM FLUORESCEIN % vs. control: 32.1%
[3]; 5 minutes
  SPEED OF CHARCOAL PARTICLES 5 Minutes mm/min. x̄ ± ES: 8.2 ±2.12 mm/min.
[3]; 10 minutes
  SPEED OF CHARCOAL PARTICLES 10 Minutes mm/min x̄ ± ES: 9.5 ±1.62 mm/min
[3]; 20 minutes
  SPEED OF CHARCOAL PARTICLES 20 Minutes mm/min. x̄ ± ES: 10.2 ±2.31 mm/min.
[3]; [9]
  activation at 100 µg/mL: 28.1 ± 3.54%
[3]; [10]
  activation at 100 µg/mL: 57.6%
[3]; [11]
  activation at 100 µg/mL: 59.4%
[3]
  SPEED OF CHARCOAL PARTICLES Basal mm/min. x̄ ± ES: 6.4 ±1.30 mm/min.
[4]
  inhibiting activity on elastase: practically inactive
[5]
  percent regression (lesions degrees): 38%
[6]; mouse
  LD50: > 2500 mg/kg
[6]; rat
  LD50: > 5000 mg/kg

## O=C(Nc1c(Br)cc(Br)cc1CN[C@H]1CC[C@H](O)CC1)c1cccs1 [PU 163, 4-/ /(2-(2-thenoyl)-amino-3,5-dibromophenyl)-methyl/amino/cy-clohexanol]
[1]; de-insufflation, 0.5 cm^3
  Internal pulmonary pressure (cm. H2O): 0.35 cm. H2O
[1]; de-insufflation, 1 cm^3
  Internal pulmonary pressure (cm. H2O): 1.4 cm. H2O
[1]; de-insufflation, 1.5 cm^3
  Internal pulmonary pressure (cm. H2O): 2.5 cm. H2O
[1]; de-insufflation, 2 cm^3
  Internal pulmonary pressure (cm. H2O): 3.9 cm. H2O
[1]; de-insufflation, 2.5 cm^3
  Internal pulmonary pressure (cm. H2O): 5.2 cm. H2O
[1]; de-insufflation, 3 cm^3
  Internal pulmonary pressure (cm. H2O): 6.75 cm. H2O
[1]; insufflation, 0.5 cm^3
  Internal pulmonary pressure (cm. H2O): 2.2 cm. H2O
[1]; insufflation, 1 cm^3
  Internal pulmonary pressure (cm. H2O): 3.8 cm. H2O
[1]; insufflation, 1.5 cm^3
  Internal pulmonary pressure (cm. H2O): 5.35 cm. H2O
[1]; insufflation, 2 cm^3
  Internal pulmonary pressure (cm. H2O): 6.5 cm. H2O
[1]; insufflation, 2.5 cm^3
  Internal pulmonary pressure (cm. H2O): 7.6 cm. H2O
[1]; insufflation, 3 cm^3
  Internal pulmonary pressure (cm. H2O): 8.45 cm. H2O
[1]; insufflation, 3.5 cm^3
  Internal pulmonary pressure (cm. H2O): 9 cm. H2O
[2]
  SODIUM FLUORESCEIN % vs. control: 39.3%
[7]
  concentrations in the organs (pulmonary level): larger amounts of Ambroxol at the pulmonary level
[7]; compared with Ambroxol treated group
  plasma concentrations as Ambroxol: detected at prolonged times
[3]; 5 minutes
  SPEED OF CHARCOAL PARTICLES 5 Minutes mm/min. x̄ ± ES: 8.7 ±2.82 mm/min.
[3]; 10 minutes
  SPEED OF CHARCOAL PARTICLES 10 Minutes mm/min x̄ ± ES: 10.2 ±2.02 mm/min
[3]; 20 minutes
  SPEED OF CHARCOAL PARTICLES 20 Minutes mm/min. x̄ ± ES: 11.5 ±2.38 mm/min.
[3]; [9]
  activation at 100 µg/mL: 24.3 ± 7.8%
[3]; [10]
  activation at 100 µg/mL: 45.7%
[3]; [11]
  activation at 100 µg/mL: 64.3%
[3]
  SPEED OF CHARCOAL PARTICLES Basal mm/min. x̄ ± ES: 7.00 ±1.40 mm/min.
[5]
  percent regression (lesions degrees): 62%
[8]
  activity of reducing emphysema: high activity of reducing emphysema
[6]; mouse
  LD50: > 2500 mg/kg
[6]; rat
  LD50: > 5000 mg/kg
